We go through 2 molecules from ChEMBL document CHEMBL4396870, “Pharmacological Chaperones for the Treatment of α-Mannosidosis” (J Med Chem, 2019).

Substitutions are numbered along the chain they refer to.

Test [1] has as its system T1, Lysosomal alpha-mannosidase (Homo sapiens), O00754 [C55F].
T1 sequence (whole entry): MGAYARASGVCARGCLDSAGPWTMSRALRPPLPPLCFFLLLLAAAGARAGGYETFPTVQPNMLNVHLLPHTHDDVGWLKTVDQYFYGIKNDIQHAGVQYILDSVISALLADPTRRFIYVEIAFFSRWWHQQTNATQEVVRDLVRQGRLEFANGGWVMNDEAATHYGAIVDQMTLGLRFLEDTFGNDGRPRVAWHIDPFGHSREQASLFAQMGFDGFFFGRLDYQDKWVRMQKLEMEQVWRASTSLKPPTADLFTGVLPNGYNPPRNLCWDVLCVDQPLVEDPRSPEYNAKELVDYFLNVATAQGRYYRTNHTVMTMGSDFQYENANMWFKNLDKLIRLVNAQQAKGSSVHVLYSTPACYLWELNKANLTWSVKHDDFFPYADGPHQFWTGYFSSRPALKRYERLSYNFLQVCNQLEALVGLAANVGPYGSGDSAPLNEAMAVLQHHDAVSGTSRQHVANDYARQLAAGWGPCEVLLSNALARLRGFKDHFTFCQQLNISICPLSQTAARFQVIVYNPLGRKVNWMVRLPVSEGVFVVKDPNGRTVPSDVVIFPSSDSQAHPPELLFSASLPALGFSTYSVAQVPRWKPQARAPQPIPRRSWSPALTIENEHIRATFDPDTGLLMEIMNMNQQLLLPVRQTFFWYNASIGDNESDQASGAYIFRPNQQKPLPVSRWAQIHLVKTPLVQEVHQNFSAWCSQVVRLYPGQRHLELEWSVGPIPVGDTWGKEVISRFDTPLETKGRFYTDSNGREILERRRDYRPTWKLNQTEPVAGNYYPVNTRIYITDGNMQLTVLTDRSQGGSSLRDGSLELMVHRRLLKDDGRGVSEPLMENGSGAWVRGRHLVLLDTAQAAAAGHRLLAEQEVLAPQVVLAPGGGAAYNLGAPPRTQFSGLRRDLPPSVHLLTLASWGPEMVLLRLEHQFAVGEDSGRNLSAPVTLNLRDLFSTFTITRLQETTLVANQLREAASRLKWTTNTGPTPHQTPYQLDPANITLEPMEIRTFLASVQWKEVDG
Nature of the test: Chaperone activity at human Lysosomal alpha-mannosidase C55F mutant transfected in human […] knockout HAP1 cells assessed as enzyme activity enhancement at 0.2 uM incubated for 96 hrs relative to control.

Test [2] relates to T2, Lysosomal alpha-mannosidase (Homo sapiens), O00754 [R916C].
T2 sequence (whole entry): T1 sequence (whole entry) with F55C, R916C
Kind of test: Chaperone activity at human Lysosomal alpha-mannosidase R916C mutant transfected in human […] knockout HAP1 cells assessed as enzyme activity enhancement at 2 uM incubated for 96 hrs relative to control.

In the case of `CC(C)(C)OC(=O)NCCCCCCCCCN[C@@H]1[C@@H](O)[C@@H](O)[C@H](O)[C@H]2COC(=O)N21`, the Activity in test [1] was found to be 13%; in test [2], 26%.

As for `COC[C@H]1O[C@@H]2O[C@H]3[C@H](OC)[C@@H](OC)[C@@H](O[C@H]4[C@H](OC)[C@@H](OC)[C@@H](O[C@H]5[C@H](OC)[C@@H](OC)[C@@H](O[C@H]6[C@H](OC)[C@@H](OC)[C@@H](O[C@H]7[C@H](OC)[C@@H](OC)[C@@H](O[C@H]8[C@H](OC)[C@@H](OC)[C@@H](O[C@H]1[C@H](OC)[C@H]2OC)O[C@@H]8COC)O[C@@H]7COC)O[C@@H]6COC)O[C@@H]5COCc1cn(CCCCCCN[C@@H]2[C@@H](O)[C@@H](O)[C@H](O)[C@H]5COC(=O)N52)nn1)O[C@@H]4COC)O[C@@H]3COC`, the Activity in test [1] came to 23%; in test [2], 33%.
